Measured values as given in article PMC12797502, “Effects of emodepside on single-channel properties of Onchocerca volvulus SLO-1A (BK) potassium channels” (Parasites & Vectors, 2025).

Biological target: T1, Ovo-SLO-1A (Onchocerca volvulus, UniProt A0A2K6W0E9)
T1 construct: T2A-linked GFP as transfection marker; homotetramer; Ala350 printed in S6 (natural residue)
Test: inside-out and whole-cell patch clamp, transfected HEK293 cells
Type: biochemical
Conditions: activator; 0.3 µM (inside-out, +20 mV, 100 µM free Ca2+, bath pH 7.2) or 1 µM (whole-cell, +20 mV); room temperature; empty-vector control

T1 sequence (A0A2K6W0E9 1-1119): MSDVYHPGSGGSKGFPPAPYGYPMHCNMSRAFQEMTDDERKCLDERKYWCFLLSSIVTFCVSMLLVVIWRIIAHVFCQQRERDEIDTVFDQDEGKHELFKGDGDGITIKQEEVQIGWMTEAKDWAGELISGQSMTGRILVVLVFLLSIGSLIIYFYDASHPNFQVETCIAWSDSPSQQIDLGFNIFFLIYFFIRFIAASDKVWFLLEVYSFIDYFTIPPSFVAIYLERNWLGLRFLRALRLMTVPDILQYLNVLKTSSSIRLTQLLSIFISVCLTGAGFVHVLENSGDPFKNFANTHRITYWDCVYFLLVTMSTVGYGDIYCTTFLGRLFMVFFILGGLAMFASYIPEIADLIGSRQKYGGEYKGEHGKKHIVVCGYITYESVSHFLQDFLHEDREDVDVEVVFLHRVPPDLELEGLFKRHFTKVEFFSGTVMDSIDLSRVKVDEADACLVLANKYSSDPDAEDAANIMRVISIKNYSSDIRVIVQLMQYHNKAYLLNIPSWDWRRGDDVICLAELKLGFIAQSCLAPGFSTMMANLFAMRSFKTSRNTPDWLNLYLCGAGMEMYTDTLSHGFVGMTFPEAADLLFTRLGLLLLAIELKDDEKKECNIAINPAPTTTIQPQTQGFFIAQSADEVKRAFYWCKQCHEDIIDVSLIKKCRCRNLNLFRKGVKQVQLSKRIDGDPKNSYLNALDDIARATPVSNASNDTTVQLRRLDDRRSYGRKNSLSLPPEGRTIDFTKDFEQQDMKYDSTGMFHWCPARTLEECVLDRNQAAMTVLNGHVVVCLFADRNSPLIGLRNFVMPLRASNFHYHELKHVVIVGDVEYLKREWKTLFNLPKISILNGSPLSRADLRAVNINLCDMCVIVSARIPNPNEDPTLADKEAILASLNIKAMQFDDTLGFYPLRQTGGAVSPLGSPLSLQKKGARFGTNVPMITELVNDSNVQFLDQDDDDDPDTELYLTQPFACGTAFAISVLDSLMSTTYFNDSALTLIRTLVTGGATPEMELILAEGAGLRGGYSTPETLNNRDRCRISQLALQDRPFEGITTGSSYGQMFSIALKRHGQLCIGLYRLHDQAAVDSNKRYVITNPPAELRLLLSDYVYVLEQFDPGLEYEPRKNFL

## CC(C)C[C@H]1C(=O)O[C@H](Cc2ccc(N3CCOCC3)cc2)C(=O)N(C)[C@@H](CC(C)C)C(=O)O[C@H](C)C(=O)N(C)[C@@H](CC(C)C)C(=O)O[C@H](Cc2ccc(N3CCOCC3)cc2)C(=O)N(C)[C@@H](CC(C)C)C(=O)O[C@H](C)C(=O)N1C [Emodepside]
  inside-out and whole-cell patch clamp, transfected HEK293 cells: The probability of the channel being open, Popen, significantly increased
